Experimental data: patent US20250320205A1, “STAT6 DEGRADERS” (Gilead Sciences, Inc., priority 2024, published 2025)

Columns and labels:
STAT6 = biological target: T1, STAT6 (Homo sapiens, UniProt P42226); assay: STAT6 Degrader Assay (HiBiT based, HeLa LgBiT clone 4.14 cells); assay type: cell-based; conditions: geometric mean across assay runs and compound batches; DC50 provided for test compounds with >80% Emax; read-out: STAT6 degradation DC50
T1 construct: These cells express endogenous STAT6; host or cells: HeLa LgBiT clone 4.14 (CRISPR knock-in of HiBiT into the endogenous STAT6 gene)
T1 sequence (P42226 1-847): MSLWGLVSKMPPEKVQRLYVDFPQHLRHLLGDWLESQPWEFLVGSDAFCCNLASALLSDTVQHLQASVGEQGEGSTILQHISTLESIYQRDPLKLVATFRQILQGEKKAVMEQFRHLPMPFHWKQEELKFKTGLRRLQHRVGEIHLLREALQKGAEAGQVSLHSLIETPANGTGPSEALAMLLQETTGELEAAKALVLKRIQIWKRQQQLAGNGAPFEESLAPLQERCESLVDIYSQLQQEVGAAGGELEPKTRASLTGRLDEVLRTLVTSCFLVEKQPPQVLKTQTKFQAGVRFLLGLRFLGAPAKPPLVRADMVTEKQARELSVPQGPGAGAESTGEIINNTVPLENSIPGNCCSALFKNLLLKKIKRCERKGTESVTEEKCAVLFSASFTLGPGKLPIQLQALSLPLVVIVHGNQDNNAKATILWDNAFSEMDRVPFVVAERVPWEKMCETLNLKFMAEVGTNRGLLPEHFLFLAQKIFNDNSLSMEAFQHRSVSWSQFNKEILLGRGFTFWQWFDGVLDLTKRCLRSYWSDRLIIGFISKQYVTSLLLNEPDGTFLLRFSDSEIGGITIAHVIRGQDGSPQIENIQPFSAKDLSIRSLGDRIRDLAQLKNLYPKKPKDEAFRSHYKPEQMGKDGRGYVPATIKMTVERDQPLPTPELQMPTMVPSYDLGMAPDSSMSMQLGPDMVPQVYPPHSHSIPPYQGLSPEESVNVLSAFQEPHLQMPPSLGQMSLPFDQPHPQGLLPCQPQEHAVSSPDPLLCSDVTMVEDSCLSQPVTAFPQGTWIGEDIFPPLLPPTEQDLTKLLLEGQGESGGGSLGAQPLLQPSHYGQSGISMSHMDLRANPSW
Procedure, shortened: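 DC50 (nM) comes from NanoBiT luminescence of HiBiT-knock-in STAT6 in HeLa LgBiT clone 4.14 cells, treated 4-24 h at 37° C. Luminescence reflects non-degraded STAT6, with 50 μM terfenadine wells taken as full degradation.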

[1] = tested on: Eotaxin-3 (CCL26) release; assay: Human Whole Blood Eotaxin-3 Assay (IL-4 stimulated); assay type: cell-based; conditions: Homo sapiens; geometric mean across assay runs and compound batches; EC50 provided for test compounds with >80% Emax
Procedure, shortened: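 Lithium-heparin human whole blood preincubated 2 h at 37 °C with compounds (4-fold dilutions, triplicate, 0.5% DMSO final). Then stimulated with 400 pM final recombinant human IL-4 for 48 h. Eotaxin-3 in supernatant quantified by MSD immunoassay.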

| DC50 (STAT6) [nM] | EC50 [1] [nM] | Structure (SMILES) |
| --- | --- | --- |
| 7.8 | 18.6 | C[C@@H]1CN(c2ccc(NC3CCC(=O)NC3=O)cc2F)CCN1CC1CCN(C(=O)c2ccc(C3CCN([C@@H](C)c4cc5c(-n6ccc7c(c6=O)CCN7)ccnc5n4C)CC3)cc2)CC1 (stereo partly drawn) [Example 2f14, 3-((3-fluoro-4-((R)-3-methyl-4-((1-(4-(1-((S)-1-(1-methyl-4-(4-oxo-1,2,3,4-tetrahydro-5H-pyrrolo[3,2-c]pyridin-5-yl)-1H-pyrrolo[2,3-b]pyridin-2-yl)ethyl)piperidin-4-yl)-benzoyl)piperidin-4-yl)-meth-yl)piperazin-1-yl)phenyl)-amino)piperidine-2,6-dione] |
| 0.5 | 1.9 | CNc1cc(=O)n(-c2ccnc3c2cc([C@H](C)N2CC=C(c4c(C)cc(C(=O)N5CCn6nc(CN7CCC(c8ccc(NC9CCC(=O)NC9=O)cc8F)CC7)cc6C5)cc4F)CC2)n3C)cc1F (stereo partly drawn) [Example 2g4, 3-((3-fluoro-4-(1-((5-(3-fluoro-4-(1-((S)-1-(4-(5-fluoro-4-(methylamino)-2-oxopyridin-1(2H)-yl)-1-meth-yl-1H-pyrrolo[2,3-b]pyridin-2-yl)ethyl)-1,2,3,6-tetrahydro-pyridin-4-yl)-5-methylbenzo-yl)-4,5,6,7-tetrahydropyrazolo [1,5-a]pyrazin-2-yl)methyl)-piperidin-4-yl)phenyl)amino)-piperidine-2,6-dione] |
| 10.3 | 15.4 | CNc1cc(=O)n(-c2ccnc3c2cc([C@H](C)N2CC=C(c4c(C)cc(C(=O)N5CCn6nc(CC7(O)CCN(c8ccc(NC9CCC(=O)NC9=O)c(OC)c8)CC7)cc6C5)cc4F)CC2)n3C)cc1F (stereo partly drawn) [Example 2g7, 3-((4-(4-((5-(3-fluoro-4-(1-((S)-1-(4-(5-fluoro-4-(meth-ylamino)-2-oxopyridin-1(2H)-yl)-1-methyl-1H-pyrrolo[2,3-b]pyridin-2-yl)ethyl)-1,2,3,6-tetrahydropyridin-4-yl)-5-methylbenzoyl)-4,5,6,7-tetra-hydropyrazolo[1,5-a]pyrazin-2-yl)methyl)-4-hydroxy-piperidin-1-yl)-2-methoxy-phenyl)amino)-piperidine-2,6-dione] |
| 11.4 | 19.2 | CNc1ccn(-c2ccnc3c2cc([C@H](C)N2CC=C(c4c(C)cc(C(=O)N5CCC(CN6CCN(Cc7ccc(NC8CCC(=O)NC8=O)c(F)c7)CC6)CC5)cc4F)CC2)n3C)c(=O)c1 (stereo partly drawn) [Example 2g10, 3-((2-fluoro-4-((4-((1-(3-fluoro-5-methyl-4-(1-((S)-1-(1-methyl-4-(4-(methyl-amino)-2-oxopyridin-1(2H)-yl)-1H-pyrrolo[2,3-b]pyridin-2-yl)ethyl)-1,2,3,6-tetrahydro-pyridin-4-yl)benzoyl)-piper-idin-4-yl)methyl)piperazin-1-yl)methyl)phenyl)amino)-piperidine-2,6-dione] |
| 2.2 | 3.5 | Cc1cc(C(=O)N2CCn3nc(CN4CCC(c5ccc(NC6CCC(=O)NC6=O)cc5F)CC4)cc3C2)cc(F)c1C1=CCN([C@@H](C)c2cc3c(-n4cc(F)c5c(c4=O)CCN5)ccnc3n2C)CC1 (stereo partly drawn) [Example 2g14, 3-((3-fluoro-4-(1-((5-(3-fluoro-4-(1-((S)-1-(4-(7-fluoro-4-oxo-1,2,3,4-tetra-hydro-5H-pyrrolo[3,2-c]pyridin-5-yl)-1-methyl-1H-pyrrolo[2,3-b]pyridin-2-yl)-ethyl)-1,2,3,6-tetrahydro-pyridin-4-yl)-5-methylbenzo-yl)-4,5,6,7-tetrahydropyrazolo [1,5-a]pyrazin-2-yl)methyl)-piperidin-4-yl)phenyl)amino)-piperidine-2,6-dione] |
| 0.2 | 0.1 | CNc1ccn(-c2ccnc3c2cc([C@H](C)N2CC=C(c4c(C)cc(C(=O)N5CCn6nc(CN7CCC(c8ccc(NC9CCC(=O)NC9=O)cc8F)CC7)cc6C5)cc4F)CC2)n3C)c(=O)c1 (stereo partly drawn) [Example 2g15, 3-((3-fluoro-4-(1-((5-(3-fluoro-5-methyl-4-(1-((S)-1-(1-methyl-4-(4-(methyl-amino)-2-oxopyridin-1(2H)-yl)-1H-pyrrolo[2,3-b]pyridin-2-yl)ethyl)-1,2,3,6-tetrahydro-pyridin-4-yl)benzoyl)-4,5,6,7-tetrahydropyrazolo[1,5-a]pyr-azin-2-yl)methyl)piperidin-4-yl)phenyl)amino)piperidine-2,6-dione] |
| 3.1 | 5.5 | Cc1cc(C(=O)N2CCC(CN3CCN(c4ccc(NC5CCC(=O)NC5=O)cc4F)CC3)CC2)cc(F)c1C1=CCN([C@@H](C)c2cc3c(-n4ccc5c(c4=O)CCN5)ccnc3n2C)CC1 (stereo partly drawn) [Example 2g18, 3-((3-fluoro-4-(4-((1-(3-fluoro-5-methyl-4-(1-((S)-1-(1-methyl-4-(4-oxo-1,2,3,4-tetrahydro-5H-pyrrolo[3,2-c]pyridin-5-yl)-1H-pyrrolo[2,3-b]pyridin-2-yl)ethyl)-1,2,3,6-tetrahydropyridin-4-yl)benzo-yl)piperidin-4-yl)methyl)-piperazin-1-yl)phenyl)amino)-piperidine-2,6-dione] |
| 0.6 | 0.4 | Cc1cc(C(=O)N2CCn3nc(CN4CCC(c5ccc(NC6CCC(=O)NC6=O)cc5F)CC4)cc3C2)cc(F)c1C1=CCN([C@@H](C)c2cc3c(-n4ccc5c(c4=O)CCN5)ccnc3n2C)CC1 (stereo partly drawn) [Example 2g25, 3-((3-fluoro-4-(1-((5-(3-fluoro-5-methyl-4-(1-((S)-1-(1-methyl-4-(4-oxo-1,2,3,4-tetrahydro-5H-pyrrolo[3,2-c]pyridin-5-yl)-1H-pyrrolo[2,3-b]pyridin-2-yl)ethyl)-1,2,3,6-tetrahydropyridin-4-yl)benzo-yl)-4,5,6,7-tetrahydropyrazolo [1,5-a]pyrazin-2-yl)methyl)-piperidin-4-yl)phenyl)amino)-piperidine-2,6-dione] |
| 1.5 | 0.9 | CNc1ccn(-c2ccnc3c2cc([C@H](C)N2CC=C(c4c(C)cc(C(=O)N5CCn6nc(CC7(O)CCN(c8ccc(NC9CCC(=O)NC9=O)cc8F)CC7)cc6C5)cc4F)CC2)n3C)c(=O)c1 (stereo partly drawn) [Example 2g26, 3-((3-fluoro-4-(4-((5-(3-fluoro-5-methyl-4-(1-((S)-1-(1-methyl-4-(4-(methyl-amino)-2-oxopyridin-1(2H)-yl)-1H-pyrrolo[2,3-b]pyridin-2-yl)ethyl)-1,2,3,6-tetrahydro-pyridin-4-yl)benzoyl)-4,5,6,7-tetrahydropyrazolo[1,5-a]pyr-azin-2-yl)methyl)-4-hydroxy-piperidin-1-yl)phenyl)amino)-piperidine-2,6-dione] |
| 10.6 | 56.9 | CNc1cc(=O)n(-c2ccnc3c2cc(CN2CCC(c4c(F)cc(C(=O)N5CCC(CN6CCN(c7ccc(NC8CCC(=O)NC8=O)cc7F)CC6)CC5)cc4F)CC2)n3C)cc1F (stereo not drawn) [Example 2g32, 3-((4-(4-((1-(3,5-difluoro-4-(1-((4-(5-fluoro-4-(methyl-amino)-2-oxopyridin-1(2H)-yl)-1-methyl-1H-pyrrolo[2,3-b]pyridin-2-yl)methyl)piperi-din-4-yl)benzoyl)piperidin-4-yl)methyl)piperazin-1-yl)-3-fluorophenyl)amino)piperi-dine-2,6-dione] |
| 16 | 73.2 | Cn1c(CN2CCC(c3c(F)cc(C(=O)N4CCC(CN5CCN(c6ccc(NC7CCC(=O)NC7=O)cc6F)CC5)CC4)cc3F)CC2)cc2c(-n3ccc4c(c3=O)CCN4)ccnc21 (stereo not drawn) [Example 2g35, 3-((4-(4-((1-(3,5-difluoro-4-(1-((1-methyl-4-(4-oxo-1,2,3,4-tetrahydro-5H-pyrrolo [3,2-c]pyridin-5-yl)-1H-pyrrolo[2,3-b]pyridin-2-yl)-methyl)piperidin-4-yl)benzo-yl)piperidin-4-yl)methyl)-piperazin-1-yl)-3-fluorophen-yl)-amino)piperidine-2,6-dione] |
| 15.7 | 64.6 | CNc1ccn(-c2ccnc3c2cc([C@H](C)N2CCC(c4c(C)cc(C(=O)N5CCC(CN6CCN(c7ccc(NC8CCC(=O)NC8=O)cc7F)CC6)CC5)cc4F)CC2)n3C)c(=O)c1 (stereo partly drawn) [Example 2g43, 3-((3-fluoro-4-(4-((1-(3-fluoro-5-methyl-4-(1-((S)-1-(1-methyl-4-(2-(methyl-amino)-2-oxopyridin-1(2H)-yl)-1H-pyrrolo[2,3-b]pyridin-2-yl)ethyl)piperidin-4-yl)-benzoyl)piperidin-4-yl)meth-yl)piperazin-1-yl)phenyl)-amino)piperidine-2,6-dione] |
